According to patent publication US9896418B2, “Aryl ethers and uses thereof” (Peloton Therapeutics, Inc., priority 2013, dated 2018):

Tested on: HIF-2α HIS TAG-PASB Domain
Assay: HIF-2α Scintillation Proximity Assay (SPA)
Assay type: binding
Experimental: The percent inhibition was determined and IC50 values were calculated using the Dotmatics system based on the following equation: % inhibition=[(high control−sample)/(high control−low control)]×100.

Row | Compound | IC50 [nM]
1 | C/C=C/c1c(S(=O)(=O)C(F)F)ccc(Oc2cc(F)cc(C#N)c2)c1C#N [Compound 178, (E)-6-(3-Cyano-5-fluorophenoxy)-3-((difluoromethyl)sulfonyl)-2-(prop-1-en-1-yl)benzonitrile] | 920
2 | CS(=N)(=O)c1ccc(Oc2cc(F)cc(Cl)c2)c(C#N)c1Cl (centres unmarked) [Compound 180, 2-Chloro-6-(3-chloro-5-fluorophenoxy)-3-(S-methylsulfonimidoyl)benzonitrile] | 9400
3 | CS(=O)(=NC#N)c1ccc(Oc2cc(F)cc(F)c2)c2c1C(O)CC2 (centres unmarked) [Compound 189, N-((7-(3,5-Difluorophenoxy)-3-hydroxy-2,3-dihydro-1H-inden-4-yl)(methyl)(oxo)-λ^6-sulfanylidene)cyanamide] | 3200
4 | O=C1c2c(S(=O)(=O)C(F)F)ccc(Oc3ccc(F)c(Br)c3)c2CC1(F)F [Compound 193, 4-(3-Bromo-4-fluorophenoxy)-7-((difluoromethyl)sulfonyl)-2,2-difluoro-2,3-dihydro-1H-inden-1-one] | 900
5 | CCS(=O)(=O)c1ccc(Oc2cc(F)cc(C#N)c2)c2c1C(O)CC2 (centres unmarked) [Compound 205, 3-((7-(Ethylsulfonyl)-1-hydroxy-2,3-dihydro-1H-inden-4-yl)oxy)-5-fluorobenzonitrile] | 2400
6 | N#Cc1cc(F)cc(Oc2ccc(S(=O)(=O)C3CCC3)c3c2CCC3O)c1 (centres unmarked) [Compound 208, 3-((7-(Cyclobutylsulfonyl)-1-hydroxy-2,3-dihydro-1H-inden-4-yl)oxy)-5-fluorobenzonitrile] | > 100000
7 | CO[C@H]1c2c(S(C)(=O)=O)ccc(Oc3cc(F)cc(C#N)c3)c2CC1(F)F [Compound 210, (S)-3-((2,2-Difluoro-1-methoxy-7-(methylsulfonyl)-2,3-dihydro-1H-inden-4-yl)oxy)-5-fluorobenzonitrile] | 17000
8 | CNS(=O)(=O)c1ccc(Oc2cc(F)cc(F)c2)c2c1C(O)CC2 (centres unmarked) [Compound 211, 7-(3,5-Difluorophenoxy)-3-hydroxy-N-methyl-2,3-dihydro-1H-indene-4-sulfonamide] | 2100
9 | N#Cc1cc(Oc2ccc(S(=O)(=O)C(F)(F)F)c3c2CCC3O)ccc1F (centres unmarked) [Compound 216, 2-Fluoro-5-((1-hydroxy-7-((trifluoromethyl)sulfonyl)-2,3-dihydro-1H-inden-4-yl)oxy)benzonitrile] | 2700
10 | CS(=O)(=O)c1cc(F)c(Oc2cc(F)cc(C#N)c2)c2c1C(O)C(F)(F)C2 (centres unmarked) [Compound 219, 3-Fluoro-5-((2,2,5-trifluoro-1-hydroxy-7-(methylsulfonyl)-2,3-dihydro-1H-inden-4-yl)oxy)benzonitrile] | 17000
11 | O=S(=O)(c1ccc(Oc2ccc3[nH]ncc3c2)c2c1C(O)C(F)(F)C2)C(F)(F)F (centres unmarked) [Compound 238, 4-((1H-Indazol-5-yl)oxy)-2,2-difluoro-7-((trifluoromethyl)sulfonyl)-2,3-dihydro-1H-inden-1-ol] | 4900
12 | O=S(=O)(c1ccc(Oc2c(F)ccc3[nH]ncc23)c2c1C(O)C(F)(F)C2)C(F)(F)F (centres unmarked) [Compound 244, 2,2-Difluoro-4-((5-fluoro-1H-indazol-4-yl)oxy)-7-((trifluoromethyl)sulfonyl)-2,3-dihydro-1H-inden-1-ol] | 1000
13 | N#Cc1cc(F)cc(Oc2ccc(Br)c3c2C(F)(F)C(F)(F)C3)c1 [Compound 248, 3-((7-Bromo-2,2,3,3-tetrafluoro-2,3-dihydro-1H-inden-4-yl)oxy)-5-fluorobenzonitrile] | 17000
14 | CS(=O)(=O)c1ccc(Oc2cc(C#N)cc(C(F)F)c2)c2c1C(O)CC2 (centres unmarked) [Compound 249, 3-(Difluoromethyl)-5-((1-hydroxy-7-(methylsulfonyl)-2,3-dihydro-1H-inden-4-yl)oxy)benzonitrile] | 880
15 | N#Cc1cc(F)cc(Oc2ccc(S(=O)(=O)CCO)c3c2CC(F)(F)C3O)c1 (centres unmarked) [Compound 250, 3-((2,2-Difluoro-1-hydroxy-7-((2-hydroxyethyl)sulfonyl)-2,3-dihydro-1H-inden-4-yl)oxy)-5-fluorobenzonitrile] | 1300
16 | N#Cc1cncc(Oc2ccc(S(N)(=O)=O)c3c2CC(F)(F)[C@H]3O)c1 [Compound 253, (S)-7-((5-Cyanopyridin-3-yl)oxy)-2,2-difluoro-3-hydroxy-2,3-dihydro-1H-indene-4-sulfonamide] | 18000
17 | NS(=O)(=O)c1ccc(Oc2cc(F)cc(F)c2)c2c1C(O)CC2 (centres unmarked) [Compound 257, 7-(3,5-Difluorophenoxy)-3-hydroxy-2,3-dihydro-1H-indene-4-sulfonamide] | 1900
18 | O=S(=O)(c1ccc(Oc2cc(F)cc3[nH]ncc23)c2c1C(O)C(F)(F)C2)C(F)(F)F (centres unmarked) [Compound 262, 2,2-Difluoro-4-((6-fluoro-1H-indazol-4-yl)oxy)-7-((trifluoromethyl)sulfonyl)-2,3-dihydro-1H-inden-1-ol] | 4900

These reach a lower IC50. Values come first.

Row | IC50 [nM] | Compound
19 | 23 | O=S(=O)(c1ccc(Oc2cc(F)cc(Cl)c2)c(Br)c1Cl)C(F)(F)F [Compound 179, 2-Bromo-3-chloro-1-(3-chloro-5-fluorophenoxy)-4-((trifluoromethyl)sulfonyl)benzene]
20 | 380 | O=C1c2c(S(=O)(=O)C(F)F)ccc(Oc3cncc(Cl)c3)c2CC1(F)F [Compound 182, 4-((5-Chloropyridin-3-yl)oxy)-7-((difluoromethyl)sulfonyl)-2,2-difluoro-2,3-dihydro-1H-inden-1-one]
21 | 720 | O=S(=O)(c1ccc(Oc2cncc(Cl)c2)c2c1[C@H](O)CC2)C(F)(F)F [Compound 184, (R)-4-((5-Chloropyridin-3-yl)oxy)-7-((trifluoromethyl)sulfonyl)-2,3-dihydro-1H-inden-1-ol]
22 | 580 | CS(=N)(=O)c1ccc(Oc2cc(F)cc(F)c2)c2c1C(O)CC2 (centres unmarked) [Compound 190, (7-(3,5-Difluorophenoxy)-3-hydroxy-2,3-dihydro-1H-inden-4-yl)(imino)(methyl)-λ^6-sulfanone]
23 | 110 | O=C1c2c(S(=O)(=O)C(F)F)ccc(Oc3ccc(F)c(F)c3)c2CC1(F)F [Compound 195, 7-((Difluoromethyl)sulfonyl)-4-(3,4-difluorophenoxy)-2,2-difluoro-2,3-dihydro-1H-inden-1-one]
24 | 770 | Cc1cc(Oc2ccc(S(=O)(=O)C(F)F)c3c2CC(F)(F)C3=O)ccc1F [Compound 197, 7-((Difluoromethyl)sulfonyl)-2,2-difluoro-4-(4-fluoro-3-methylphenoxy)-2,3-dihydro-1H-inden-1-one]
25 | 680 | N#Cc1cc(F)cc(Oc2ccc(S(=O)(=O)C(F)F)c3c2CCC3F)c1 (centres unmarked) [Compound 202, 3-((7-((Difluoromethyl)sulfonyl)-1-fluoro-2,3-dihydro-1H-inden-4-yl)oxy)-5-fluorobenzonitrile]
26 | 77 | O=[N+]([O-])c1c(Oc2cc(F)cc(Cl)c2)ccc(C(F)(F)F)c1Cl [Compound 203, 2-Chloro-4-(3-chloro-5-fluorophenoxy)-3-nitro-1-(trifluoromethyl)benzene]
27 | 210 | O=[N+]([O-])c1c(Oc2cccc(Cl)c2)ccc(C(F)(F)F)c1Cl [Compound 204, 2-Chloro-4-(3-chlorophenoxy)-3-nitro-1-(trifluoromethyl)benzene 1,3-dichloro-2-nitro-4-(trifluoromethyl)benzene]
28 | 500 | N#Cc1cc(F)cc(Oc2ccc(S(=O)(=O)C(F)F)c3c2CC(F)(F)[C@H]3N)c1 [Compound 207, (S)-3-((1-Amino-7-((difluoromethyl)sulfonyl)-2,2-difluoro-2,3-dihydro-1H-inden-4-yl)oxy)-5-fluorobenzonitrile]
29 | 670 | O=S(=O)(c1ccc(Oc2ccc(F)cc2)c2c1C(O)CC2)C(F)(F)F (centres unmarked) [Compound 212, 4-(4-Fluorophenoxy)-7-((trifluoromethyl)sulfonyl)-2,3-dihydro-1H-inden-1-ol]
30 | 800 | Cc1cc(Oc2cc(F)cc(C#N)c2)c2c(c1S(C)(=O)=O)C(O)C(F)(F)C2 (centres unmarked) [Compound 213, 3-((2,2-Difluoro-1-hydroxy-6-methyl-7-(methylsulfonyl)-2,3-dihydro-1H-inden-4-yl)oxy)-5-fluorobenzonitrile]
31 | 230 | O=S(=O)(c1ccc(Oc2ccc(F)c(F)c2)c2c1C(O)CC2)C(F)(F)F (centres unmarked) [Compound 214, 4-(3,4-Difluorophenoxy)-7-((trifluoromethyl)sulfonyl)-2,3-dihydro-1H-inden-1-ol]
32 | 810 | O=S(=O)(c1ccc(Oc2ccc(F)c(Cl)c2)c2c1C(O)CC2)C(F)(F)F (centres unmarked) [Compound 218, 4-(3-Chloro-4-fluorophenoxy)-7-((trifluoromethyl)sulfonyl)-2,3-dihydro-1H-inden-1-ol]
33 | 700 | N#Cc1cncc(Oc2ccc(S(=O)(=O)C(F)(F)F)c3c2CCC3O)c1 (centres unmarked) [Compound 220, 5-((1-Hydroxy-7-((trifluoromethyl)sulfonyl)-2,3-dihydro-1H-inden-4-yl)oxy)nicotinonitrile]
34 | 250 | O=S(=O)(c1ccc(Oc2cccc3[nH]ncc23)c2c1C(O)C(F)(F)C2)C(F)(F)F (centres unmarked) [Compound 243]
35 | 410 | N#Cc1cc(F)cc(Oc2ccc(S(=N)(=O)C(F)(F)F)c3c2CCC3O)c1 (stereo not drawn) [Compound 258, 3-Fluoro-5-((1-hydroxy-7-(S-(trifluoromethyl)sulfonimidoyl)-2,3-dihydro-1H-inden-4-yl)oxy)benzonitrile]
36 | 640 | O=S(=O)(c1ccc(Oc2cc(F)c(F)c3[nH]ncc23)c2c1C(O)C(F)(F)C2)C(F)(F)F (centres unmarked) [Compound 261, 4-((6,7-Difluoro-1H-indazol-4-yl)oxy)-2,2-difluoro-7-((trifluoromethyl)sulfonyl)-2,3-dihydro-1H-inden-1-ol]
37 | 25 | O=S(=O)(c1ccc(Oc2cccc3[nH]ncc23)c2c1[C@H](O)C(F)(F)C2)C(F)(F)F [Compound 263, (S)-4-((1H-Indazol-4-yl)oxy)-2,2-difluoro-7-((trifluoromethyl)sulfonyl)-2,3-dihydro-1H-inden-1-ol]
38 | 380 | O=S(=O)(c1ccc(Oc2c(F)ccc3[nH]ncc23)c2c1[C@H](O)C(F)(F)C2)C(F)(F)F [Compound 264, (S)-2,2-Difluoro-4-((5-fluoro-1H-indazol-4-yl)oxy)-7-((trifluoromethyl)sulfonyl)-2,3-dihydro-1H-inden-1-ol]
